What follows are compounds tested against GLP-1R (Homo sapiens, UniProt P43220) (assay: GLP-1R Activation - cAMP Assay). Settings: cAMP increase in CHO cells stably expressing GLP-1R; each compound run on one of the two cAMP assays (Assay 1 or Assay 2, not specified).
Assay type: cell-based
How it was run: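 cAMP rise read by HTRF after 30 min agonist exposure (10-point titration, 37 °C) in HBSS/20 mM Hepes/0.1% BSA, following 1 h pre-incubation. Cells: stable GLP-1R CHO line, 1,000/well, seeded overnight. Sigmoidal fit of response vs log concentration gives EC50.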

GLP-1R, sequence (P43220 24-463): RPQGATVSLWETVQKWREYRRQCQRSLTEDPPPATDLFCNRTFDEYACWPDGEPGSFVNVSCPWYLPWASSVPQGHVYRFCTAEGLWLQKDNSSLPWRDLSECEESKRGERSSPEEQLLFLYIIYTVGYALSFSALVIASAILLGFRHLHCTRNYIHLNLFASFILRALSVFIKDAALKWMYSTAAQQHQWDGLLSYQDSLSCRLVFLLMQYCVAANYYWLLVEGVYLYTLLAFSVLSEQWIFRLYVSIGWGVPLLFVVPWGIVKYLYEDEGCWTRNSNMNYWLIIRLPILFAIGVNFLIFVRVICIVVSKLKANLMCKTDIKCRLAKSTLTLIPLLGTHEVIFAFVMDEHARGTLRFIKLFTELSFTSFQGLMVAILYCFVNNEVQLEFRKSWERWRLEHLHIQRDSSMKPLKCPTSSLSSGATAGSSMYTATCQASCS

| EC50 | Structure (SMILES) |
| --- | --- |
| 0.074 nM | COCCn1c(Cc2cc(F)c(-c3cccc(OCc4ccc(C#N)cc4F)n3)cc2Cl)nc2c(F)cc(C(=O)O)cc21 [Example 351, 2-(2-chloro-4-(6-((4-cyano-2-fluorobenzyl)oxy)pyridin-2-yl)-5-fluorobenzyl)-4-fluoro-1-(2-methoxyethyl)-1H-benzo[d]imidazole-6-carboxylic acid] |
| 0.535 nM | CO[C@H](C)Cn1c(Cc2cc(F)c(-c3cccc(OCc4ccc(-n5ccnn5)nc4)n3)cc2F)nc2c(F)cc(C(=O)O)cc21 [Example 352, (R)-2-(4-(6-((6-(1H-1,2,3-triazol-1-yl)pyridin-3-yl)methoxy)pyridin-2-yl)-2,5-difluorobenzyl)-4-fluoro-1-(2-methoxypropyl)-1H-benzo[d]imidazole-6-carboxylic acid] |
| 1.18 nM | CO[C@H](C)Cn1c(Cc2cc(F)c(-c3cccc(OCc4cc(F)c(Cl)cc4F)n3)cc2F)nc2c(F)cc(C(=O)O)cc21 [Example 353, (R)-2-(4-(6-((4-chloro-2,5-difluorobenzyl)oxy)pyridin-2-yl)-2,5-difluorobenzyl)-4-fluoro-1-(2-methoxypropyl)-1H-benzo[d]imidazole-6-carboxylic acid] |
| 0.528 nM | CO[C@H](C)Cn1c(Cc2cc(F)c(-c3cccc(OCc4ccc(-n5ccnn5)cc4F)n3)cc2F)nc2c(F)cc(C(=O)O)cc21 [Example 354, (R)-2-(2,5-difluoro-4-(6-((2-fluoro-4-(1H-1,2,3-triazol-1-yl)benzyl)oxy)pyridin-2-yl)benzyl)-4-fluoro-1-(2-methoxypropyl)-1H-benzo[d]imidazole-6-carboxylic acid] |
| 1.21 nM | CO[C@H](C)Cn1c(Cc2cc(F)c(-c3cccc(OCc4ccc(C#N)cc4F)n3)cc2F)nc2c(F)cc(C(=O)O)cc21 [Example 355, (R)-2-(4-(6-((4-cyano-2-fluorobenzyl)oxy)pyridin-2-yl)-2,5-difluorobenzyl)-4-fluoro-1-(2-methoxypropyl)-1H-benzo[d]imidazole-6-carboxylic acid] |
| 0.171 nM | CC1(C)COC[C@H]1n1c(Cc2cc(F)c(-c3cccc(OCc4ccc(C(F)F)cc4)n3)cc2F)nc2ccc(C(=O)O)cc21 [Example 357, (S)-2-(4-(6-((4-(difluoromethyl)benzyl)oxy)pyridin-2-yl)-2,5-difluorobenzyl)-1-(4,4-dimethyltetrahydrofuran-3-yl)-1H-benzo[d]imidazole-6-carboxylic acid] |
| 0.124 nM | CC1(C)COC[C@H]1n1c(Cc2cc(F)c(-c3cccc(OCc4ccc(C(F)(F)F)cc4)n3)cc2F)nc2ccc(C(=O)O)cc21 [Example 358, (S)-2-(2,5-difluoro-4-(6-((4-(trifluoromethyl)benzyl)oxy)pyridin-2-yl)benzyl)-1-(4,4-dimethyltetrahydrofuran-3-yl)-1H-benzo[d]imidazole-6-carboxylic acid] |
| 0.079 nM | CC1(C)COC[C@H]1n1c(Cc2cc(F)c(-c3cccc(OCc4ccc(F)cc4)n3)cc2F)nc2ccc(C(=O)O)cc21 [Example 360, (S)-2-(2,5-difluoro-4-(6-((4-fluorobenzyl)oxy)pyridin-2-yl)benzyl)-1-(4,4-dimethyltetrahydrofuran-3-yl)-1H-benzo[d]imidazole-6-carboxylic acid] |
| 0.131 nM | Cc1ccc(COc2cccc(-c3cc(F)c(Cc4nc5ccc(C(=O)O)cc5n4[C@@H]4COCC4(C)C)cc3F)n2)cc1 [Example 361, (S)-2-(2,5-difluoro-4-(6-((4-methylbenzyl)oxy)pyridin-2-yl)benzyl)-1-(4,4-dimethyltetrahydrofuran-3-yl)-1H-benzo[d]imidazole-6-carboxylic acid] |
| 0.266 nM | CC1(C)COC[C@H]1n1c(Cc2c(F)cc(-c3cccc(OCc4ccc(C#N)cc4)n3)cc2F)nc2ccc(C(=O)O)cc21 [Example 362, (S)-2-(4-(6-((4-cyanobenzyl)oxy)pyridin-2-yl)-2,6-difluorobenzyl)-1-(4,4-dimethyltetrahydrofuran-3-yl)-1H-benzo[d]imidazole-6-carboxylic acid] |

From patent publication US12570642B2, “GLP-IR modulating compounds” (Gilead Sciences, Inc., priority 2021, dated 2026)
